Assay results published in patent publication US20240239799A1, “(S)-1-(5-((PYRIDIN-3-YL)THIO)PYRAZIN-2-YL)-4'H,6'H-SPIRO[PIPERIDINE-4,5'-PYRROLO [1,2-B]PYRAZOL]-4'-AMINE DERIVATIVES AND SIMILAR COMPOUNDS AS SHP2 INHIBITORS FOR THE TREATMENT OF E.G. CANCER” (C.N.C.C.S. S.C.A.R.L. COLLEZIONE NAZIONALE DEI COMPOSTI …, priority 2021, published 2024).
Read-outs that look alike come from different tables or passages of the source.

Legend:
[1] = molecular target: T1, SHP-2 enzyme (Met1-Leu525) (Homo sapiens, UniProt Q06124); experiment: SHP2 inhibition enzymatic assay (DiFMUP substrate, IRS1 peptide activation); assay type: biochemical; details: 0.5 nM SHP-2, 500 nM IRS1 peptide, 75 μM DiFMUP; read-out: SHP2wt - IC50
T1 construct: synthetized by Origene, Met1-Leu525, cat #TP750155; purchased Origene TP750155
T1 sequence (Q06124 1-525): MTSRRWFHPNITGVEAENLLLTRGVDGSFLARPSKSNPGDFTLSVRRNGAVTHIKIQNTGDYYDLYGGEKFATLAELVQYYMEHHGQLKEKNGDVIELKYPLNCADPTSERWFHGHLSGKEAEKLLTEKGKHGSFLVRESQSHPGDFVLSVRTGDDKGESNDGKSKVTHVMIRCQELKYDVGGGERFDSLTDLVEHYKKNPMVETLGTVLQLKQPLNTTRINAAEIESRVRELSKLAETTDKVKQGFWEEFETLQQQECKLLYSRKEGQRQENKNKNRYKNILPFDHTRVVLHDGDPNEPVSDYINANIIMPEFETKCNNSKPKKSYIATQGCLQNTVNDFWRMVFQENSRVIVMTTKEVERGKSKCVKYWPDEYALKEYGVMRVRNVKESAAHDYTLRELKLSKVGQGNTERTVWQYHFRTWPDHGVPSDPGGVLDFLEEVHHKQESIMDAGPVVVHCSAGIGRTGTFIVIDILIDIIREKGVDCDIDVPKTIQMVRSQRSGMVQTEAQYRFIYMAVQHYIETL
Protocol: Assay volume of 20 μL/well was assembled in 384 well black polystyrene low-binding microplates (Greiner), using the following buffer: 60 mM HEPES pH 7.2, 75 mM NaCl, 75 mM KCl, 1 mM EDTA pH 8, 0.05% tween-20, 5 mM DTT. The SHP-2 enzyme (synthetized by Origene, Met1-Leu525, cat #TP750155) was used at a final concentration of 0.5 nM.
Briefly, DMSO serially diluted testing compounds were transferred to the bottom of the assay plate. SHP2 was then added together with the IRS1 peptide 30 min post incubation, the DiFMUP substrate was added to the reaction and incubated 30 min at rt. […] The fluorescence was detected by a microplate reader (Envision, PerkinElmer) according to the DiFMUP excitation and emission wavelength. The lower the fluorescence the higher the SHP2 inhibition.
The percentage inhibition is fitted against the compound dilutions with a four-parameter logistic regression. The inflection point (i.e. the concentration at which half-maximal inhibition is achieved) is the IC50.

[2] = system: phospho-ERK1/2 (Thr202/Tyr204) in KYSE-520 cells; experiment: Phospho-ERK cellular assay (TR-FRET); assay type: cell-based; details: KYSE-520 cells, 2 h at 37° C., read-out: pERK IC50
Protocol: ERK phosphorylation was detected using the “Advanced phospho-ERK1/2 (Thr202/Tyr204)” TR-FRET kit (Cisbio, Cat #64AERPEG/H), following the manufacturer reagents and instructions.
Briefly, 20.000/well KYSE-520 cells (DSMZ ACC 371) were plated in 6 μL RPMI-1640 (Invitrogen) growth medium, into 384 white low-volume high base TC microplates (Greiner). After an overnight incubation, cells were treated with DMSO serial diluted compounds and incubated for 2 h at 37° C. After incubation, 2 μL/well of 4X Lysis Buffer (Cisbio 64KL1FDF), were added and incubated with cells for 30 min on gentle shaking. Finally, lysates were added with 2 μL/well of Eu cryptate (donor) and D2 (acceptor) conjugated antibodies (as provided by the Cisbio kit #64AERPEG/H) diluted 1:100 in Detection Buffer (as provided by the Cisbio kit #64AERPEG/H). Plates were then sealed and incubated at rt in the dark. After an overnight incubation, the TR-FRET signal was detected on a suitable reader (Envision, PerkinElmer). The lower the TR-FRET signal the higher the higher the SHP2 inhibition in cells.
The activity of each compound dilution was calculated as percentage between vehicle DMSO treated cells and no cells, 0% inhibition and 100% inhibition respectively. The percentage activity is fitted against the compound dilutions with a four-parameter logistic regression. The inflection point (i.e. the concentration at which half-maximal inhibition is achieved) is the IC50.

SMILES	IC50 [1]	IC50 ([2]; Homo sapiens, KYSE-520, 2 h)	IC50 [2]
Cn1c(N2CCC3(CC2)Cn2nccc2[C@H]3N)ncc(Sc2ccnc(N)c2Cl)c1=O [Example 76, (S)-5-((2-amino-3-chloropyridin-4-yl)thio)-2-(4′-amino-4′H,6′H-spiro[piperidine-4,5′-pyrrolo[1,2-b]pyrazol]-1-yl)-3-methylpyrimidin-4(3H)-one]	≤ 0.05 µM	< 0.1 µM	–
CNC(=O)c1ccn(-c2nccc(Sc3cnc(N4CCC5(CC4)Cn4nccc4[C@H]5N)cn3)c2Cl)c1 [Example 67, (S)-1-(4-((5-(4′-amino-4′H,6′H-spiro[piperidine-4,5′-pyrrolo[1,2-b]pyrazol]-1-yl)pyrazin-2-yl)thio)-3-chloropyridin-2-yl)-N-methyl-1H-pyrrole-3-carboxamide]	≤ 0.05 µM	< 0.1 µM	–
N[C@@H]1c2ccnn2CC12CCN(c1cnc(Sc3ccn4cnnc4c3Cl)cn1)CC2 [Example 51, (S)-1-(5-((8-chloro-[1,2,4]triazolo[4,3-a]pyridin-7-yl)thio)pyrazin-2-yl)-4′H,6′H-spiro[piperidine-4,5′-pyrrolo[1,2-b]pyrazol]-4′-amine]	≤ 0.05 µM	0.1 to 0.5 µM	–
Nc1nc(N2CCC3(CC2)Cn2nc4c(c2[C@H]3N)CCC4)cnc1Sc1ccnc(N)c1Cl [Example 20, (S)-1′-(6-amino-5-((2-amino-3-chloropyridin-4-yl)thio)pyrazin-2-yl)-1,2,3,8-tetrahydro-6H-spiro[cyclopenta[d]pyrrolo[1,2-b]pyrazole-7,4′-piperidin]-8-amine]	≤ 0.05 µM	< 0.1 µM	–
Cc1nccc(Sc2cnc(N3CCC4(CC3)Cn3nccc3[C@H]4N)cn2)c1F [Example 81, (S)-1-(5-((3-fluoro-2-methylpyridin-4-yl)thio)pyrazin-2-yl)-4′H,6′H-spiro[piperidine-4,5′-pyrrolo[1,2-b]pyrazol]-4′-amine]	≤ 0.05 µM	< 0.1 µM	–
Nc1nc(N2CCC3(CC2)Cn2nccc2[C@H]3N)cnc1Sc1ccnc(N)c1Cl [Example 4, (S)-1-(6-amino-5-((2-amino-3-chloropyridin-4-yl)thio)pyrazin-2-yl)-4′H,6′H-spiro[piperidine-4,5′-pyrrolo[1,2-b]pyrazol]-4′-amine]	≤ 0.05 µM	< 0.1 µM	–
N[C@@H]1c2ccnn2CC12CCN(c1cnc(Sc3ccn4c(Cl)cnc4c3Cl)cn1)CC2 [Example 48, (S)-1-(5-((3,8-dichloroimidazo[1,2-a]pyridin-7-yl)thio)pyrazin-2-yl)-4′H,6′H-spiro[piperidine-4,5′-pyrrolo[1,2-b]pyrazol]-4′-amine]	≤ 0.05 µM	< 0.1 µM	–
N[C@@H]1c2ccnn2CC12CCN(c1cnc(Sc3cccc(Cl)c3Cl)cn1)CC2 [Example 83, (S)-1-(5-((2,3-dichlorophenyl)thio)pyrazin-2-yl)-4′H,6′H-spiro[piperidine-4,5′-pyrrolo[1,2-b]pyrazol]-4′-amine]	≤ 0.05 µM	< 0.1 µM	–
Nc1cnc(Sc2cnc(N3CCC4(CC3)Cn3nccc3[C@H]4N)cn2)c(Cl)n1 [Example 47, (S)-1-(5-((5-amino-3-chloropyrazin-2-yl)thio)pyrazin-2-yl)-4′H,6′H-spiro[piperidine-4,5′-pyrrolo[1,2-b]pyrazol]-4′-amine]	≤ 0.05 µM	< 0.1 µM	–
CN(C)C(=O)c1cnn(-c2nccc(Sc3cnc(N4CCC5(CC4)Cn4nccc4[C@H]5N)cn3)c2Cl)c1 [Example 69, (S)-1-(4-((5-(4′-amino-4′H,6′H-spiro[piperidine-4,5′-pyrrolo[1,2-b]pyrazol]-1-yl)pyrazin-2-yl)thio)-3-chloropyridin-2-yl)-N,N-dimethyl-1H-pyrazole-4-carboxamide]	≤ 0.05 µM	< 0.1 µM	–
NC(=O)c1cnn(-c2nccc(Sc3cnc(N4CCC5(CC4)Cn4nccc4[C@H]5N)cn3)c2Cl)c1 [Example 65, (S)-1-(4-((5-(4′-amino-4′H,6′H-spiro[piperidine-4,5′-pyrrolo[1,2-b]pyrazol]-1-yl)pyrazin-2-yl)thio)-3-chloropyridin-2-yl)-1H-pyrazole-4-carboxamide]	≤ 0.05 µM	< 0.1 µM	–
Cc1nc(N2CCC3(CC2)Cn2nccc2[C@H]3N)c(Cl)c(=O)n1-c1cccc(Cl)c1Cl (single isomer, unassigned) [Example 78b]	> 0.3 µM	–	> 0.5 µM
Nc1nccc(Sc2cnc(N3CCC4(CC3)Cn3nncc3[C@H]4N)n3ccnc23)c1Cl [Example 39, (S)-1-(8-((2-amino-3-chloropyridin-4-yl)thio)imidazo[1,2-c]pyrimidin-5-yl)-4′H,6′H-spiro[piperidine-4,5′-pyrrolo[1,2-c][1,2,3]triazol]-4′-amine]	≤ 0.05 µM	0.1 to 0.5 µM	–
N[C@@H]1c2ccnn2CC12CCN(c1nc3nc(Sc4cccnc4C(F)(F)F)cnc3[nH]1)CC2 [Example 1, (S)-1-(5-((2-(trifluoromethyl)pyridin-3-yl)thio)-1H-imidazo[4,5-b]pyrazin-2-yl)-4′H,6′H-spiro[piperidine-4,5′-pyrrolo[1,2-b]pyrazol]-4′-amine]	≤ 0.05 µM	> 0.5 µM	–
Nc1ccc(Sc2cnc(N3CCC4(CC3)Cn3nccc3[C@H]4N)cn2)c(Cl)n1 [Example 55, (S)-1-(5-((6-amino-2-chloropyridin-3-yl)thio)pyrazin-2-yl)-4′H,6′H-spiro[piperidine-4,5′-pyrrolo[1,2-b]pyrazol]-4′-amine]	≤ 0.05 µM	< 0.1 µM	–
N[C@@H]1c2ccnn2CC12CCN(c1ncc(Sc3ccn4ccnc4c3Cl)n3cncc13)CC2 [Example 32, (S)-1-(5-((8-chloroimidazo[1,2-a]pyridin-7-yl)thio)imidazo[1,5-a]pyrazin-8-yl)-4′H,6′H-spiro[piperidine-4,5′-pyrrolo[1,2-b]pyrazol]-4′-amine]	≤ 0.05 µM	0.1 to 0.5 µM	–
Cc1cc(C)n(-c2nccc(Sc3cnc(N4CCC5(CC4)Cn4nccc4[C@H]5N)cn3)c2Cl)n1 [Example 34, (S)-1-(5-((3-chloro-2-(3,5-dimethyl-1H-pyrazol-1-yl)pyridin-4-yl)thio)pyrazin-2-yl)-4′H,6′H-spiro[piperidine-4,5′-pyrrolo[1,2-b]pyrazol]-4′-amine]	≤ 0.05 µM	< 0.1 µM	–
Nc1nc(N2CCC3(CC2)Cn2nccc2[C@H]3N)cnc1Sc1ccnc(-n2ccnc2)c1Cl [Example 63, (S)-1-(6-amino-5-((3-chloro-2-(1H-imidazol-1-yl)pyridin-4-yl)thio)pyrazin-2-yl)-4′H,6′H-spiro[piperidine-4,5′-pyrrolo[1,2-b]pyrazol]-4′-amine]	≤ 0.05 µM	< 0.1 µM	–
Cc1cn2ccc(Sc3ncc(N4CCC5(CC4)Cn4nccc4[C@H]5N)nc3N)c(Cl)c2n1 [Example 64, (S)-1-(6-amino-5-((8-chloro-2-methylimidazo[1,2-a]pyridin-7-yl)thio)pyrazin-2-yl)-4′H,6′H-spiro[piperidine-4,5′-pyrrolo[1,2-b]pyrazol]-4′-amine]	≤ 0.05 µM	< 0.1 µM	–
N[C@@H]1c2ccnn2CC12CCN(c1cnc3nc(Sc4ccnc(-n5cccn5)c4Cl)ccc3n1)CC2 [Example 72, (S)-1-(6-((3-chloro-2-(1H-pyrazol-1-yl)pyridin-4-yl)thio)pyrido[2,3-b]pyrazin-2-yl)-4′H,6′H-spiro[piperidine-4,5′-pyrrolo[1,2-b]pyrazol]-4′-amine]	≤ 0.05 µM	0.1 to 0.5 µM	–
